Experimental data from patent US8476197B2, “Aminopropenoates as fungicides” (priority 2009, dated 2013).
Marks after values point to notes of the source that are not given here.

Assays:
[1] = preparation examples, HPLC method ([a], [b] or [c]) not stated
[2] = pH 2.7

| Compound | chromatographic logP [1] | LogP [1] | Log P [2] |
| --- | --- | --- | --- |
| CC(C)NC(=O)/C(C#N)=C(\NC(C)c1nccs1)c1sccc1Br (stereo not drawn) | 3.11 |  |  |
| CCC1CC1N/C(=C/C#N)c1cccnc1Cl (stereo not drawn) [3-(2-chloropyridin-3-yl)-3-[(2-ethylcyclopropyl)amino]acrylonitrile] | 2.53 |  |  |
| N#CC=C(Cl)c1cccnc1Cl [3-chloro-3-(2-chloropyridin-3-yl)acrylonitrile] | 1.94 | 2.03 |  |
| CC(N/C(=C(/C#N)C(=O)NC1CC1)c1cn(C)nc1C(F)F)c1nccs1 (stereo not drawn) [(2Z)-2-cyano-N-cyclopropyl-3-[3-(difluoromethyl)-1-methyl-1H-pyrazol-4-yl]-3-{[1-(1,3-thiazol-2-yl)ethyl]amino}acrylamide] | 2.04 |  |  |
| CCNC(=S)/C(C#N)=C(\NC1CC1CC)c1cccnc1Cl (stereo not drawn) [(2Z)-3-(2-chloropyridin-3-yl)-2-cyano-N-ethyl-3-[(2-ethylcyclopropyl)amino]-prop-2-enethioamide] | 3.87 |  |  |
| CC(N/C(=C(/C#N)C(=O)O)c1sccc1Br)c1nccs1 (stereo not drawn) [(2Z)-3-(3-bromo-2-thienyl)-2-cyano-3-{[1-(1,3-thiazol-2-yl)ethyl]amino}acrylic acid] | 1.23 |  |  |
| CCOC(=O)C(C#N)=C(NC(C)C1=NCCS1)c1cccnc1Cl (stereo not drawn) [Compound 1629] |  |  | 2.5^[a] |
| CCOC(=O)C(C#N)=C(NC1CCCCC1)c1cc(Cl)sc1Cl [Compound 1630] |  |  | 4.92^[a] |
| CCOC(=O)C(C#N)=C(NC(C)C(=O)NC1CCCCC1)c1cc(Cl)sc1Cl (stereo not drawn) [Compound 1631] |  |  | 3.83^[a] |
| CCOC(=O)C(C#N)=C(NC(C)C(=O)NC)c1cc(Cl)sc1Cl (stereo not drawn) [Compound 1632] |  |  | 2.46^[a] |
| CCOC(=O)C(C#N)=C(NC(C)C(C)=NOC)c1cccnc1Cl (stereo not drawn) [Compound 1633] |  |  | 2.8^[a] |
| CCOC(=O)C(C#N)=C(NC1CC1C1CC1)c1cccnc1Cl (stereo not drawn) [Compound 1634] |  |  | 3.13^[a] |
| CCOC(=O)C(C#N)=C(NC1CC1C(C)C)c1cccnc1Cl (stereo not drawn) [Compound 1635] |  |  | 3.53^[a] |
| CCON=C(C)C(C)NC(=C(C#N)C(=O)OCC)c1cccnc1Cl (stereo not drawn) [Compound 1636] |  |  | 3.29^[a] |
| CCOC(=O)C(C#N)=C(NC(C)c1nccn1C)c1cccnc1Cl (stereo not drawn) [Compound 1637] |  |  | 0.93^[a] |
| CCOC(=O)C(C#N)=C(NC(C)c1cc(C(F)(F)F)c(Cl)cn1)c1cccnc1Cl (stereo not drawn) [Compound 1638] |  |  | 3.9^[a] |
| CCOC(=O)C(C#N)=C(NC(C)c1cc(Cl)cc(Cl)n1)c1cccnc1Cl (stereo not drawn) [Compound 1639] |  |  | 3.7^[a] |
| CCOC(=O)C(C#N)=C(NC(C)C1CCC1)c1ccnn1C(F)F (stereo not drawn) [Compound 1640] |  |  | 3.56^[a] |
| CCOC(=O)C(C#N)=C(NC1(CC)CC1)c1cccnc1Cl [Compound 1641] |  |  | 3.13^[a] |
| CCOC(=O)C(C#N)=C(NC1(CC2CC2)CC1)c1cccnc1Cl [Compound 1642] |  |  | 3.53^[a] |
| CCOC(=O)C(C#N)=C(NC(C)Cc1ccccc1)c1cccnc1Cl (stereo not drawn) [Compound 1643] |  |  | 3.5^[a] |
| CCOC(=O)C(C#N)=C(NC(C)c1nccs1)c1ccnn1C(F)F (stereo not drawn) [Compound 1644] |  |  | 2.51^[a] |
| CCOC(=O)C(C#N)=C(NC(C)C(C)C)c1ccnn1C(F)F (stereo not drawn) [Compound 1645] |  |  | 3.27^[a] |
| CCOC(=O)C(C#N)=C(NC(C)c1ccccn1)c1ccnn1C(F)F (stereo not drawn) [Compound 1646] |  |  | 2.55^[a] |
| CCOC(=O)C(C#N)=C(NC(C)C1CC1)c1ccnn1C(F)F (stereo not drawn) [Compound 1647] |  |  | 3.01^[a] |
| CCOC(=O)C(C#N)=C(NC(C)C1CCC1)c1c(CC)nn(C)c1Cl (stereo not drawn) [Compound 1648] |  |  | 3.94^[a] |
| CCOC(=O)C(C#N)=C(NC(C)c1c(Cl)cccc1Cl)c1cccnc1Cl (stereo not drawn) [Compound 1649] |  |  | 3.8^[a] |
| CCOC(=O)C(C#N)=C(Cl)c1scc(C)c1Cl [ethyl 3-chloro-3-(3-chloro-4-methyl-2-thienyl)-2-cyanoacrylate] | 3.65 | 3.70 |  |
